Like-named read-outs stand apart in the source and are kept apart here. Starred links: 1 amine or outer side, 2 acyl side, 3 side chain; linkers in the order of their positions; H or OH if unused. Non-standard residues stand in square brackets, D forms with d. Residues, ends and D or L forms follow the SMILES beside them. Groups on a side chain read outwards from the residue. *: point of attachment. C20 diacid = O=C(O)CCCCCCCCCCCCCCCCCCC(=O)*; C18 diacid = O=C(O)CCCCCCCCCCCCCCCCC(=O)*; γGlu = O=C(O)[C@H](CCC(=O)[*:2])N[*:1]; AEEA = NCCOCCOCC(=O)O; Aib = CC(C)(N)C(=O)O

Experiment [1] concerns the target T1, human CRF2α receptor (Homo sapiens, UniProt Q13324).
T1 construct: expressed in transfected cells; host or cells: TeloHEAC
T1 sequence (Q13324 1-411): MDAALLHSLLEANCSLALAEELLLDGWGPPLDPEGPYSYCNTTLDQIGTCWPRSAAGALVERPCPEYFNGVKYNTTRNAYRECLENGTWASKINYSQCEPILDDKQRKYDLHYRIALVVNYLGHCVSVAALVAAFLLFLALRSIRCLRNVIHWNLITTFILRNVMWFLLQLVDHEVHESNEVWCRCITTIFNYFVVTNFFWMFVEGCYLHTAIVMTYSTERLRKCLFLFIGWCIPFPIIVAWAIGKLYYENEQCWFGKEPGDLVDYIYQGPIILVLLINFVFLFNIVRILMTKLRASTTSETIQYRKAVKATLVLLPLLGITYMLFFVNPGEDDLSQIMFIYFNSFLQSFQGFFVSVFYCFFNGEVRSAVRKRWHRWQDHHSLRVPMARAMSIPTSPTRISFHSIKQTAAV
The experiment is described as follows: cAMP agonism at human CRF2 α receptor in TeloHEAC cells (Example 7). It is filed as cell-based. As to conditions: cAMP HTRF, TeloHEAC cells stably expressing human CRF2 α. The procedure, abridged:
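Percent activation was referenced to 1000 nM UCN2 (100%), and EC50 values taken as concentrations giving half of maximal response. The read-out was a homogeneous time-resolved fluorescence cAMP kit, fluorescence ratio 665/620 nm. Thawed cells (2000/well) saw compound for 30 min at RT in buffer with 2 mM IBMX and 0%/0.1% HSA.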

Experiment [2] relates to rat CRF2R α receptor. The experiment is described as follows: cAMP agonism at rat CRF2R α receptor in A7R5 rat aortic smooth muscle cells (Example 8). It is filed as cell-based. The conditions noted are these: cAMP HTRF, A7R5 rat aortic smooth muscle cell line, 0% HSA. How it is done:
Cells were grown in a T175 culture flask placed at 37° C. to near confluence in medium (DMEM/10% FBS) and collected in 2 ml vials in cell culture medium containing 10% DMSO in a concentration of 10-50 million cells/ml. Each vial contained 1.8 ml cells. The vials were slowly frozen to −80° C. in isopropanol and then transferred in liquid nitrogen for storage. Prior to use, frozen cells were thawed quickly at 37° C. and washed (5 min at 900 rpm) with 20 ml cell buffer (1×HBSS; 20 mM HEPES; 0% or 0.1% HSA). Cells were resuspended in assay buffer (cell buffer plus 2 mM IBMX) and adjusted to a cell density of 1 million cells/ml. For measurement, 5 μl cells (final […]) and 5 μL of test compound were added to a 384-well plate, followed by incubation for 30 minutes at room temperature.
The CAMP content of cells was determined using a kit from Cisbio Corp. (cat. no. 62AM4PEC) based on HTRF (Homogenous Time Resolved Fluorescence). After addition of HTRF reagents diluted in lysis buffer (kit components), the plates were incubated for 1 h, followed by measurement of the fluorescence ratio at 665/620 nm. The percent activity value (E %) was calculated by setting 1000 nM of urocortin 2 (UCN2) as 100%. The in vitro potency of the compounds was quantified by determining the concentrations that caused 50% activation of maximal response (EC50).
Using the procedure described in Example 7, the activity of the compounds at the rat CRF2R α receptor was assessed. The A7R5 rat aortic smooth muscle cell line was used in this study.

[3] abbreviates: 0% HSA, read-out: EC50 [nM], 0% HSA.
Where [4] appears, read: 0.1% HSA, read-out: EC50 [nM], 0.1% HSA.

For `CC[C@H](C)[C@H](N)C(=O)N[C@H](C(=O)N[C@@H](CC(C)C)C(=O)N[C@@H](CO)C(=O)N[C@@H](CC(C)C)C(=O)N[C@@H](CC(=O)O)C(=O)N[C@H](C(=O)N1CCC[C@H]1C(=O)N[C@H](C(=O)N[C@@H](CCCCN)C(=O)N[C@@H](CC(C)C)C(=O)N[C@@H](CCCCNC(=O)COCCOCCNC(=O)COCCOCCNC(=O)CC[C@H](NC(=O)CCCCCCCCCCCCCCCCC(=O)O)C(=O)O)C(=O)N[C@@H](CCC(N)=O)C(=O)N[C@H](C(=O)N[C@@H](CC(C)C)C(=O)N[C@@H](CC(C)C)C(=O)N[C@@H](CCC(=O)O)C(=O)N[C@@H](CCC(N)=O)C(=O)N[C@@H](C)C(=O)N[C@@H](CCCCN)C(=O)N[C@@H](CCC(N)=O)C(=O)N[C@@H](CCCCN)C(=O)NC(C)(C)C(=O)N[C@@H](CC(C)C)C(=O)N[C@@H](CCCCN)C(=O)N[C@@H](C)C(=O)N[C@@H](CCC(N)=O)C(=O)N[C@@H](C)C(=O)N[C@@H](CCC(=O)O)C(=O)N[C@H](C(=O)N[C@@H](CC(N)=O)C(=O)N[C@H](C(=O)N[C@@H](CCCNC(=N)N)C(=O)N[C@H](C(=O)N[C@@H](CC(C)C)C(=O)N[C@@H](CCC(=O)O)C(=O)N[C@@H](CCCNC(=N)N)C(=O)N[C@H](C(N)=O)C(C)C)[C@@H](C)CC)C(C)C)[C@@H](C)O)[C@@H](C)CC)[C@@H](C)CC)C(C)C)C(C)C` [compound 45] (H-IVLSLDVPIKLK([AEEA-AEEA-γGlu-C18 diacid])QILLEQAKQK[Aib]LKAQAETNVRILERV-NH2), the EC50 (commonly the concentration that produces a half-maximal response) was 3.77 nM in experiment [1] (setting [3]) and 47.3 nM in experiment [2].

Take `CC[C@H](C)[C@H](NC(C)=O)C(=O)N[C@H](C(=O)N[C@@H](CC(C)C)C(=O)N[C@@H](CO)C(=O)N[C@@H](CC(C)C)C(=O)N[C@@H](CC(=O)O)C(=O)N[C@@H](C(=O)N1CCC[C@H]1C(=O)N[C@H](C(=O)N[C@@H](CCCCN)C(=O)N[C@@H](CC(C)C)C(=O)N[C@@H](CCCCNC(=O)COCCOCCNC(=O)COCCOCCNC(=O)CC[C@H](NC(=O)CCCCCCCCCCCCCCCCC(=O)O)C(=O)O)C(=O)N[C@@H](CCC(N)=O)C(=O)N[C@H](C(=O)N[C@@H](CC(C)C)C(=O)N[C@@H](CC(C)C)C(=O)N[C@@H](CCC(=O)O)C(=O)N[C@@H](CCC(N)=O)C(=O)N[C@@H](C)C(=O)N[C@@H](CCCNC(=N)N)C(=O)N[C@@H](CCC(N)=O)C(=O)N[C@@H](CCCCN)C(=O)NC(C)(C)C(=O)N[C@@H](CCC(N)=O)C(=O)N[C@@H](CCCNC(=N)N)C(=O)N[C@@H](CCC(=O)O)C(=O)N[C@@H](CCC(N)=O)C(=O)N[C@@H](C)C(=O)N[C@@H](CCC(=O)O)C(=O)N[C@@H](CCCCN)C(=O)N[C@@H](CC(N)=O)C(=O)N[C@@H](CCCCN)C(=O)N[C@@H](CCC(N)=O)C(=O)N[C@H](C(=O)N[C@@H](CC(C)C)C(=O)N[C@@H](CCC(=O)O)C(=O)N[C@@H](CCC(N)=O)C(=O)N[C@H](C(N)=O)C(C)C)[C@@H](C)CC)[C@@H](C)CC)[C@@H](C)CC)C(C)C)C(C)C` [compound 157] (Ac-IVLSLD[dV]PIKLK([AEEA-AEEA-γGlu-C18 diacid])QILLEQARQK[Aib]QREQAEKNKQILEQV-NH2): the EC50 in experiment [1] (setting [3]) is 0.12 nM; in experiment [1] (setting [4]) it was 2.53 nM; in experiment [2] it was 1.14 nM.

For the compound `CC[C@H](C)[C@H](NC(C)=O)C(=O)N[C@H](C(=O)N[C@@H](CC(C)C)C(=O)N[C@@H](CO)C(=O)N[C@@H](CC(C)C)C(=O)N[C@@H](CC(=O)O)C(=O)N[C@@H](C(=O)N1CCC[C@H]1C(=O)N[C@H](C(=O)N[C@@H](CCCCN)C(=O)N[C@@H](CC(C)C)C(=O)N[C@@H](CCCCNC(=O)COCCOCCNC(=O)COCCOCCNC(=O)CC[C@H](NC(=O)CCCCCCCCCCCCCCCCC(=O)O)C(=O)O)C(=O)N[C@@H](CCC(N)=O)C(=O)N[C@H](C(=O)N[C@@H](CC(C)C)C(=O)N[C@@H](CC(C)C)C(=O)N[C@@H](CCC(=O)O)C(=O)N[C@@H](CCC(N)=O)C(=O)N[C@@H](CCC(=O)O)C(=O)N[C@@H](CCCNC(=N)N)C(=O)N[C@@H](CCC(N)=O)C(=O)N[C@@H](CCCCN)C(=O)NC(C)(C)C(=O)N[C@@H](CCC(N)=O)C(=O)N[C@@H](CCCNC(=N)N)C(=O)N[C@@H](CCC(=O)O)C(=O)N[C@@H](CCC(N)=O)C(=O)N[C@@H](C)C(=O)N[C@@H](CCC(=O)O)C(=O)N[C@@H](CCCCN)C(=O)N[C@@H](CC(N)=O)C(=O)N[C@@H](CCCCN)C(=O)N[C@@H](CCC(N)=O)C(=O)N[C@H](C(=O)N[C@@H](CC(C)C)C(=O)N[C@@H](CCC(=O)O)C(=O)N[C@@H](CCC(N)=O)C(=O)N[C@H](C(N)=O)C(C)C)[C@@H](C)CC)[C@@H](C)CC)[C@@H](C)CC)C(C)C)C(C)C` [compound 158] (Ac-IVLSLD[dV]PIKLK([AEEA-AEEA-γGlu-C18 diacid])QILLEQERQK[Aib]QREQAEKNKQILEQV-NH2), the EC50 in experiment [1] (setting [3]) is 0.42 nM; in experiment [1] (setting [4]), 5.63 nM; in experiment [2] it was 5.29 nM.

For `CC[C@H](C)[C@H](NC(C)=O)C(=O)N[C@H](C(=O)N[C@@H](CC(C)C)C(=O)N[C@@H](CO)C(=O)N[C@@H](CC(C)C)C(=O)N[C@@H](CC(=O)O)C(=O)N[C@@H](C(=O)N1CCC[C@H]1C(=O)N[C@H](C(=O)N[C@@H](CCCCN)C(=O)N[C@@H](CC(C)C)C(=O)N[C@@H](CCCCNC(=O)COCCOCCNC(=O)COCCOCCNC(=O)CC[C@H](NC(=O)CCCCCCCCCCCCCCCCC(=O)O)C(=O)O)C(=O)N[C@@H](CCC(N)=O)C(=O)N[C@H](C(=O)N[C@@H](CC(C)C)C(=O)N[C@@H](CC(C)C)C(=O)N[C@@H](CCC(=O)O)C(=O)N[C@@H](CCC(N)=O)C(=O)N[C@@H](CCC(=O)O)C(=O)N[C@@H](CCCNC(=N)N)C(=O)N[C@@H](CCC(N)=O)C(=O)N[C@@H](CCC(=O)O)C(=O)NC(C)(C)C(=O)N[C@@H](CCC(N)=O)C(=O)N[C@@H](CCCNC(=N)N)C(=O)N[C@@H](CCC(=O)O)C(=O)N[C@@H](CCC(N)=O)C(=O)N[C@@H](C)C(=O)N[C@@H](CCC(=O)O)C(=O)N[C@@H](CCCCN)C(=O)N[C@@H](CC(N)=O)C(=O)N[C@@H](CCCCN)C(=O)N[C@@H](CCC(N)=O)C(=O)N[C@H](C(=O)N[C@@H](CC(C)C)C(=O)N[C@@H](CCC(=O)O)C(=O)N[C@@H](CCC(N)=O)C(=O)N[C@H](C(N)=O)C(C)C)[C@@H](C)CC)[C@@H](C)CC)[C@@H](C)CC)C(C)C)C(C)C` [compound 159] (Ac-IVLSLD[dV]PIKLK([AEEA-AEEA-γGlu-C18 diacid])QILLEQERQE[Aib]QREQAEKNKQILEQV-NH2), the EC50 in experiment [1] (setting [3]) was determined as 1.27 nM; in experiment [1] (setting [4]) it was 27.4 nM; in experiment [2], 15.6 nM.

As to `CC[C@H](C)[C@H](N)C(=O)N[C@H](C(=O)N[C@@H](CC(C)C)C(=O)N[C@@H](CO)C(=O)N[C@@H](CC(C)C)C(=O)N[C@@H](CC(=O)O)C(=O)N[C@@H](C(=O)N1CCC[C@H]1C(=O)N[C@H](C(=O)N[C@@H](CCCCN)C(=O)N[C@@H](CC(C)C)C(=O)N[C@@H](CCCCNC(=O)COCCOCCNC(=O)COCCOCCNC(=O)CC[C@H](NC(=O)CCCCCCCCCCCCCCCCCCC(=O)O)C(=O)O)C(=O)N[C@@H](CCC(N)=O)C(=O)N[C@H](C(=O)N[C@@H](CC(C)C)C(=O)N[C@@H](CC(C)C)C(=O)N[C@@H](CCCCN)C(=O)N[C@@H](CCC(N)=O)C(=O)N[C@@H](CCC(=O)O)C(=O)N[C@@H](CCCNC(=N)N)C(=O)N[C@@H](CCC(N)=O)C(=O)N[C@@H](CCCCN)C(=O)NC(C)(C)C(=O)N[C@@H](CCC(N)=O)C(=O)N[C@@H](CCCNC(=N)N)C(=O)N[C@@H](CCC(=O)O)C(=O)N[C@@H](CCC(N)=O)C(=O)N[C@@H](C)C(=O)N[C@@H](CCC(=O)O)C(=O)N[C@@H](CCCCN)C(=O)N[C@@H](CC(N)=O)C(=O)N[C@@H](CCCCN)C(=O)N[C@@H](CCC(N)=O)C(=O)N[C@H](C(=O)N[C@@H](CC(C)C)C(=O)N[C@@H](C)C(=O)N[C@@H](CCC(N)=O)C(=O)N[C@H](C(N)=O)C(C)C)[C@@H](C)CC)[C@@H](C)CC)[C@@H](C)CC)C(C)C)C(C)C` [compound 173] (H-IVLSLD[dV]PIKLK([AEEA-AEEA-γGlu-C20 diacid])QILLKQERQK[Aib]QREQAEKNKQILAQV-NH2; N-terminus assumed), the results for the EC50 in experiment [1] (setting [3]), in experiment [1] (setting [4]) and in experiment [2] were 0.03 nM, 3.49 nM and 0.83 nM, respectively.

(Values after patent US12679878B2, “CRF2 receptor agonists and their use in therapy” (SANOFI, priority 2020, dated 2026).)
